In patent publication US20250319108A1, “COMBINATIONS” (AN2 Therapeutics, Inc., priority 2021, published 2025):
Converted amounts (≈) assume the structure as drawn. Structures can show the parent of a compound that is named as a salt. Where two headings read alike, the source gives them in different places.

Key:
[1] = test system: M. avium ATCC 700898; assay: Agar MIC; assay type: cell-based; conditions: 7H10 Middlebrook agar, 5% OADC; for MIC: Mycobacterium avium, ATCC700898
Description: (§1) Minimum inhibitory concentration (MIC) determinations: MIC values for the putative EBO resistant mutants were determined by broth microdilution method (BMD) in cation-adjusted Mueller Hinton broth according to Clinical and Laboratory Standards Institute document M24-A3 (Clinical and Laboratory Standards Institute. Susceptibility Testing of Mycobacteria, Nocardia spp., and Other Aerobic Actinomycetes. 3rd ed. CLSI standard M24. Clinical and Laboratory Standards Institute, Wayne, PA: 2018). Agar MIC values were determined as essentially described by CLSI M24-A3 using 7H10 Middlebrook agar and 5% OADC.
(§2) Resistant colonies were confirmed by replica plating on agar plates containing antibiotic at the same concentration used to select resistance. Control plates containing no drug were prepared for inoculum determination. The RF was calculated by dividing the total CFU/mL of resistant colonies by the total CFU/mL of the inoculum.

[2] = test system: M. avium ATCC 700898 isolate 64-4A; assay: MIC, EBO selected isolate; assay type: cell-based
Description: as §1, §2

[3] = test system: M. avium ATCC 700898 isolate 16-5A; assay: MIC, EBO selected isolate; assay type: cell-based
Description: as §1, §2

[4] = test system: M. avium ATCC 700898 isolate 32-8A; assay: MIC, EBO selected isolate; assay type: cell-based
Description: as §1, §2

[5] = test system: M. avium ATCC 700898 isolate 64-3A; assay: MIC, EBO selected isolate; assay type: cell-based
Description: as §1, §2

[6] = test system: M. avium ATCC 700898 isolate 32-5A; assay: MIC, EBO selected isolate; assay type: cell-based
Description: as §1, §2

[7] = test system: M. avium ATCC 700898 isolate 16-3A; assay: MIC, EBO selected isolate; assay type: cell-based
Description: as §1, §2

[8] = test system: M. intracellulare DNA000111; assay: MIC, broth microdilution; assay type: cell-based; conditions: for MIC: Mycobacterium intracellulare, read-out: In Vitro Activity (MIC)
Description: as §1

[9] = test system: M. avium 2285R; assay: MIC, broth microdilution; assay type: cell-based; conditions: for MIC: Mycobacterium avium, read-out: In Vitro Activity (MIC)
Description: as §1

[10] = test system: M. abscessus ATCC 19977; assay: MIC, broth microdilution; assay type: cell-based; conditions: for MIC: Mycobacteroides abscessus, ATCC19977, read-out: In Vitro Activity (MIC)
Description: as §1

[11] = test system: M. chimaera 20-S-05; assay: MIC, broth microdilution; assay type: cell-based; conditions: for MIC: 20S05, read-out: In Vitro Activity (MIC)
Description: as §1

[12] = test system: M. avium ATCC 700858; assay: MIC, broth microdilution; assay type: cell-based; conditions: for MIC: Mycobacterium avium, ATCC700858, read-out: In Vitro Activity (MIC)
Description: as §1

[13] = test system: M. intracellulare 20-S-13; assay: MIC, broth microdilution; assay type: cell-based; conditions: for MIC: Mycobacterium intracellulare
Description: as §1

[14] = test system: M. peregrinum ATCC 700686; assay: MIC, broth microdilution; assay type: cell-based; conditions: for MIC: Mycolicibacterium peregrinum, ATCC700686, read-out: In Vitro Activity (MIC)
Description: as §1

[15] = test system: M. avium ATCC 700898 WT; assay: MIC, parent strain; assay type: cell-based
Description: as §1, §2

[16] = test system: M. avium ATCC 700898; assay type: cell-based
Description: as §2

[17] = test system: EBO resistant mutants of M. avium ATCC 700898; assay type: cell-based
Description: as §1, §2

[18] = test system: M. intracellulare 20-S-13; assay: Checkerboard synergy testing with EBO; assay type: cell-based; conditions: M. intracellulare 20-S-13, clarithromycin resistant
Description: Frozen stocks of the drugs were prepared at 5 or 2 mg/ml and frozen in aliquots at −20° C. On the day of the experiment the stocks were thawed and diluted to the appropriate concentration.
Stocks of isolates were prepared and frozen at −80° C. Fresh cultures of each isolate (1-2 weeks) were grown on either 7H10 agar plus 5% OADC or CAMH agar plus 5% OADC for use in each experiment.
(§3) The checkerboard methodology was used to test for synergy and antagonism using Middlebrook 7H9+5% OADC (Dubos et al. Am Rev Tuberc (1947) 56:334-45) as the microbiology growth media. The first antibiotic of the combination, EBO, was serially diluted along the x-axis, whereas the second antibiotic was diluted along the y- axis. Synergistic or antagonistic activity was determined using the sum of the fractional inhibitory concentration (EFIC) index. The FIC index is calculated as the sum of FIC A+FIC B, where FIC A is the MIC of drug A in the combination of drugs A and B divided by the MIC of drug A alone, plus the MIC of drug B in the combination of drugs A and B divided by the MIC of drug B alone. A combination of drugs is considered synergistic when the FIC is <0.5, additive when the FIC is >0.5 to 1, indifferent when the FIC is >1 to 2, and antagonistic when the FIC is >2 (EUCAST. Clin. Microbiol. Infect. (2000) 6: 503-508).

[19] = test system: NTM strains (5 MAC strains, 2 rapidly growing); assay: Checkerboard synergy testing with EBO, summary over strains; assay type: cell-based
Description: as §3

[20] = test system: M. avium ATCC 700898; conditions: Sensititre SLOMYCO plate; cited from earlier work
[21] = 20S13, M. intracellulare 20-S-13, read-out: In Vitro Activity (MIC)
[22] = Mycobacterium avium, ATCC700898
[23] = 20S13, read-out: In Vitro Activity (MIC)

| Compound | MIC [1] [µg/mL] | MIC ([2]; Mycobacterium avium) [µg/mL] | MIC ([3]; Mycobacterium avium) [µg/mL] | MIC ([4]; Mycobacterium avium) [µg/mL] | MIC ([5]; Mycobacterium avium) [µg/mL] | MIC ([6]; Mycobacterium avium) [µg/mL] | MIC ([7]; Mycobacterium avium) [µg/mL] | MIC [8] [µg/mL] | MIC [9] [µg/mL] | MIC [10] [µg/mL] | MIC [11] [µg/mL] | MIC [12] [µg/mL] | MIC [14] [µg/mL] | MIC [15, 22] [µg/mL] | MIC [13, 23] [µg/mL] | further results |
| --- | --- | --- | --- | --- | --- | --- | --- | --- | --- | --- | --- | --- | --- | --- | --- | --- |
| NCC[C@H](O)C(=O)N[C@@H]1C[C@H](N)[C@@H](O[C@H]2O[C@H](CN)[C@@H](O)[C@H](O)[C@H]2O)[C@H](O)[C@H]1O[C@H]1O[C@H](CO)[C@@H](O)[C@H](N)[C@H]1O [AMK, Amikacin] | 32 (≈ 54.6 µM) | 32 (≈ 54.6 µM) | 32 (≈ 54.6 µM) | 32 (≈ 54.6 µM) | 32 (≈ 54.6 µM) | 32 (≈ 54.6 µM) | 32 (≈ 54.6 µM) | 16 (≈ 27.3 µM) | 8 (≈ 13.7 µM) | 64 (≈ 109 µM) | 32 (≈ 54.6 µM) | 16 (≈ 27.3 µM) | 2 (≈ 3.42 µM) | – | – | MIC [13, 21]: 20 µg/mL (≈ 34.2 µM) |
| COc1nc2ccc(Br)cc2cc1[C@@H](c1ccccc1)[C@@](O)(CCN(C)C)c1cccc2ccccc12 [BDQ, Bedaquiline] | – | 0.06 (≈ 0.108 µM) | 0.06 (≈ 0.108 µM) | 0.12 (≈ 0.216 µM) | 0.12 (≈ 0.216 µM) | 0.03 (≈ 0.054 µM) | 0.06 (≈ 0.108 µM) | 0.5 (≈ 0.9 µM) | 0.03 (≈ 0.054 µM) | 0.5 (≈ 0.9 µM) | 0.06 (≈ 0.108 µM) | 0.06 (≈ 0.108 µM) | 0.06 (≈ 0.108 µM) | 0.06 (≈ 0.108 µM) | > 0.5 | – |
| CC(C)/N=c1\cc2n(-c3ccc(Cl)cc3)c3ccccc3nc-2cc1Nc1ccc(Cl)cc1 [CFZ, clofazimine] | – | 0.5 (≈ 1.06 µM) | 0.25 (≈ 0.528 µM) | 0.25 (≈ 0.528 µM) | 0.5 (≈ 1.06 µM) | 0.5 (≈ 1.06 µM) | 0.25 (≈ 0.528 µM) | – | – | – | – | – | – | 0.5 (≈ 1.06 µM) | – | – |
| CC[C@H]1OC(=O)[C@H](C)[C@@H](O[C@H]2C[C@@](C)(OC)[C@@H](O)[C@H](C)O2)[C@H](C)[C@@H](O[C@@H]2O[C@H](C)C[C@H](N(C)C)[C@H]2O)[C@](C)(OC)C[C@@H](C)C(=O)[C@H](C)[C@@H](O)[C@]1(C)O [CLR, Clarithromycin] | 4 (≈ 5.35 µM) | 2 (≈ 2.67 µM) | – | 0.5 (≈ 0.668 µM) | 0.5 (≈ 0.668 µM) | 1 (≈ 1.34 µM) | 0.5 (≈ 0.668 µM) | 2 (≈ 2.67 µM) | 0.125 (≈ 0.167 µM) | 16 (≈ 21.4 µM) | 4 (≈ 5.35 µM) | 2 (≈ 2.67 µM) | 1 (≈ 1.34 µM) | 2 (≈ 2.67 µM) | > 128 | – |
| NC[C@H]1OB(O)c2c(OCCCO)cccc21 [EBO, Epetraborole hydrochloride] | – | – | – | – | – | – | – | – | – | – | – | – | – | – | – | MIC ([15]; WT parent strain): 0.5 µg/mL; Resistance Frequency ([16]; EBO selection concentration 16 mg/L): 1.58 × 10^−7; Resistance Frequency ([16]; EBO selection concentration 32 mg/L): 1.21 × 10^−8; Resistance Frequency ([16]; EBO selection concentration 64 mg/L): 8.49 × 10^−9; Spontaneous resistance frequency ([16]; selected on 2-8× agar MIC): 1.58×10^−7 to 8.48×10^−9; Agar MIC [1]: 8 µg/mL; MIC ([2]; EBO selected isolate 64-4A): >128 µg/mL; MIC ([3]; EBO selected isolate 16-5A): 64 µg/mL; MIC ([4]; EBO selected isolate 32-8A): >128 µg/mL; MIC ([5]; EBO selected isolate 64-3A): >128 µg/mL; MIC ([6]; EBO selected isolate 32-5A): >128 µg/mL; MIC ([7]; EBO selected isolate 16-3A): >128 µg/mL; Change of MIC value in EBO resistant mutants versus wild-type [17]: ≥ 128 fold; In Vitro Activity (MIC) [8]: 0.5 µg/mL; In Vitro Activity (MIC) [9]: 0.5 µg/mL; In Vitro Activity (MIC) [10]: 0.06 µg/mL; In Vitro Activity (MIC) [11]: 2 µg/mL; In Vitro Activity (MIC) [12]: 2 µg/mL; In Vitro Activity (MIC) ([13]; M. intracellulare 20-S-13): 0.25 µg/mL; In Vitro Activity (MIC) [14]: 0.06 µg/mL |
| CC[C@@H](CO)NCCN[C@@H](CC)CO [EMB, Ethambutol] | 8 (≈ 39.2 µM) | 8 (≈ 39.2 µM) | 4 (≈ 19.6 µM) | 8 (≈ 39.2 µM) | 4 (≈ 19.6 µM) | 4 (≈ 19.6 µM) | 4 (≈ 19.6 µM) | 32 (≈ 157 µM) | 16 (≈ 78.3 µM) | 32 (≈ 157 µM) | 4 (≈ 19.6 µM) | 8 (≈ 39.2 µM) | 8 (≈ 39.2 µM) | 4 (≈ 19.6 µM) | 64 (≈ 313 µM) | Interaction between ethambutol and EBO, in words [18]: indifference; Interaction with EBO over the 5 MAC strains tested, in words [19]: synergy was observed with 2 strains and additivity with an additional 2 strains |
| CO[C@H]1/C=C/O[C@@]2(C)Oc3c(C)c(O)c4c(c3C2=O)C2=NC3(CCN(CC(C)C)CC3)NC2=C(NC(=O)/C(C)=C\C=C\[C@H](C)[C@H](O)[C@@H](C)[C@@H](O)[C@@H](C)[C@H](OC(C)=O)[C@@H]1C)C4=O [RFB, Rifabutin] | 0.25 (≈ 0.295 µM) | 0.25 to 0.5 (≈ 0.295 to 0.59 µM) | 0.06 (≈ 0.0708 µM) | 0.125 (≈ 0.148 µM) | 0.06 (≈ 0.0708 µM) | 0.06 (≈ 0.0708 µM) | 0.06 (≈ 0.0708 µM) | 2 (≈ 2.36 µM) | 0.125 (≈ 0.148 µM) | 32 (≈ 37.8 µM) | 1 (≈ 1.18 µM) | 0.25 (≈ 0.295 µM) | 8 (≈ 9.44 µM) | 0.06 (≈ 0.0708 µM) | – | MIC [13, 21]: 0.06 µg/mL (≈ 0.0708 µM) |
| CO[C@H]1/C=C/O[C@@]2(C)Oc3c(C)c(O)c4c(O)c(c(/C=N/N5CCN(C)CC5)c(O)c4c3C2=O)NC(=O)/C(C)=C\C=C\[C@H](C)[C@H](O)[C@@H](C)[C@@H](O)[C@@H](C)[C@H](OC(C)=O)[C@@H]1C [rifampin, Rifampin] | – | – | – | – | – | – | – | – | – | – | – | – | – | – | – | MIC variance previously reported for this strain [20]: 8 fold |
